The source of these data is PMC8650577.

One data set is described as follows: circular dichroism. The settings on record: 10 mM sodium phosphate; pH 7.2; 25 °C; 250 uM. In general terms: Circular dichroism is the unequal absorption of left and right circularly polarised light.
Data set [1] is described as follows: Two-component bis-thiol stapling with 2,3-dibromomaleimide (200 uM), TCEP (100 uM); thioether formation followed at 395 nm. The conditions noted are these: the molecule shown is the open-chain precursor, 50 mM aq. phosphate buffer pH 6.0, 0.1 mM, 20.0 °C, 1.0 h.
The nature of data set [2]: Two-component i,i+4 bis-thiol stapling: TCEP (1.1 eq) reduction for 1 h, then 2,3-dibromomaleimide (1.1 eq) for 1 h; two S-C(maleimide) thioether bonds formed. The settings on record: the molecule shown is the open-chain precursor, MeCN/50 mM aq. ammonium acetate pH 7.4 (1:1), 3.3 mM, 14 steps.

*1 amine or outer side, *2 acyl side, *3 side chain or, on linkers, in order; H or OH if unused. Where a SMILES comes first, the peptide text is derived from it. Bridges are numbered along the chain shown (N, C = ends). [ ]: non-standard residue; d: D form. Maleimide(3,4-diyl) = O=C1NC(=O)C([*:2])=C1[*:1]; hCys = N[C@@H](CCS)C(=O)O

In “circular dichroism”, `CC(=O)N[C@@H]1CSC2=C(SC[C@@H](C(N)=O)NC(=O)[C@H](C)NC(=O)[C@H](C)NC(=O)[C@H](C)NC1=O)C(=O)NC2=O` gave a helicity of 28 rel %.

`CC(=O)N[C@@H]1CSC2=C(SC[C@H](C(N)=O)NC(=O)[C@H](C)NC(=O)[C@H](C)NC(=O)[C@H](C)NC1=O)C(=O)NC2=O` yielded a helicity in the data set “circular dichroism” of 13 rel %.

For the compound `CC(=O)N[C@H]1CSC2=C(SC[C@@H](C(N)=O)NC(=O)[C@H](C)NC(=O)[C@H](C)NC(=O)[C@H](C)NC1=O)C(=O)NC2=O`, the helicity in “circular dichroism” worked out at 25 rel %.

In “circular dichroism”, `CC(=O)N[C@H]1CSC2=C(SC[C@H](C(N)=O)NC(=O)[C@H](C)NC(=O)[C@H](C)NC(=O)[C@H](C)NC1=O)C(=O)NC2=O` returned a helicity of 17 rel %.

As for `CC(=O)N[C@H]1CSC2=C(SCC[C@@H](C(N)=O)NC(=O)[C@H](C)NC(=O)[C@H](C)NC(=O)[C@H](C)NC1=O)C(=O)NC2=O` (Ac-CAAA[hCys]-NH2; linker 1-5 via Maleimide(3,4-diyl)), the helicity in “circular dichroism” is 48 rel %.

In the data set “circular dichroism”, `CC(=O)N[C@H]1CCSC2=C(SC[C@@H](C(N)=O)NC(=O)[C@H](C)NC(=O)[C@H](C)NC(=O)[C@H](C)NC1=O)C(=O)NC2=O` (Ac-[hCys]AAAC-NH2; linker 1-5 via Maleimide(3,4-diyl)) gave a helicity of 11 rel %.

In “circular dichroism”, `CC(=O)N[C@H]1CCSC2=C(SCC[C@@H](C(N)=O)NC(=O)[C@H](C)NC(=O)[C@H](C)NC(=O)[C@H](C)NC1=O)C(=O)NC2=O` (Ac-[hCys]AAA[hCys]-NH2; linker 1-5 via Maleimide(3,4-diyl)) gave a helicity of 13 rel %.

Turning to `CC(=O)N[C@@H](CSC1=C(Br)C(=O)NC1=O)C(=O)N[C@@H](C)C(=O)N[C@@H](C)C(=O)N[C@@H](C)C(=O)N[C@@H](CS)C(N)=O` [Ac-Cys-Ala-Ala-Ala-Cys-NH2], in data set [1] (19-membered ring), the ring closure, halflife came to 8 min. The compound also yielded a ring closure, overall yield in data set [2] (19-membered ring) of 21%.

As for `CC(=O)N[C@@H](CSC1=C(Br)C(=O)NC1=O)C(=O)N[C@@H](C)C(=O)N[C@@H](C)C(=O)N[C@@H](C)C(=O)N[C@H](CS)C(N)=O` [Ac-Cys-Ala-Ala-Ala-D-Cys-NH2], the ring closure, halflife in data set [1] (19-membered ring) is 8 min. For the same compound, in data set [2] (19-membered ring), the ring closure, overall yield is 21%.

As for `CC(=O)N[C@@H](CSC1=C(Br)C(=O)NC1=O)C(=O)N[C@@H](C)C(=O)N[C@@H](C)C(=O)N[C@@H](C)C(=O)N[C@@H](CCS)C(N)=O` [Ac-Cys-Ala-Ala-Ala-hCys-NH2], the ring closure, halflife in data set [1] (20-membered ring) came to 13 min. The same compound had a ring closure, overall yield in data set [2] (20-membered ring) of 4%.

`CC(=O)N[C@H](CSC1=C(Br)C(=O)NC1=O)C(=O)N[C@@H](C)C(=O)N[C@@H](C)C(=O)N[C@@H](C)C(=O)N[C@@H](CS)C(N)=O` [Ac-D-Cys-Ala-Ala-Ala-Cys-NH2] came in with a ring closure, halflife in data set [1] (19-membered ring) of 8 min. For the same compound, in data set [2] (19-membered ring), the ring closure, overall yield was found to be 7%.

Compound `CC(=O)N[C@H](CSC1=C(Br)C(=O)NC1=O)C(=O)N[C@@H](C)C(=O)N[C@@H](C)C(=O)N[C@@H](C)C(=O)N[C@H](CS)C(N)=O` [Ac-D-Cys-Ala-Ala-Ala-D-Cys-NH2] came in with a ring closure, halflife in data set [1] (19-membered ring) of 10 min. This compound also came in with a ring closure, overall yield in data set [2] (19-membered ring) of 11%.

In data set [1] (20-membered ring), `CC(=O)N[C@@H](CCSC1=C(Br)C(=O)NC1=O)C(=O)N[C@@H](C)C(=O)N[C@@H](C)C(=O)N[C@@H](C)C(=O)N[C@@H](CS)C(N)=O` [Ac-hCys-Ala-Ala-Ala-Cys-NH2] showed a ring closure, halflife of 11 min. The ring closure, overall yield in data set [2] (20-membered ring) is 18%.

`CC(=O)N[C@@H](CCSC1=C(Br)C(=O)NC1=O)C(=O)N[C@@H](C)C(=O)N[C@@H](C)C(=O)N[C@@H](C)C(=O)N[C@@H](CCS)C(N)=O` [Ac-hCys-Ala-Ala-Ala-hCys-NH2] returned a ring closure, halflife in data set [1] (21-membered ring) of 9 min. The compound also showed a ring closure, overall yield in data set [2] (21-membered ring) of 17%.
